The numbers were not newly measured in patent publication US8809326B2, “Isoquinolinone Rho kinase inhibitors” (Aerie Pharmaceuticals, Inc., priority 2006, dated 2014), which cites them from elsewhere.

For series [1] the following is noted: porcine, IL-1 beta-induced, long term treatment.
The conditions of series [2]: rat stroke model.

Regarding `O=S(=O)(c1cccc2cnccc12)N1CCCNCC1` [fasudil], in series [1], the coronary constrictive remodeling entry was “promote a regression of coronary constrictive remodeling” and the coronary stenosis result is “progressively reduce coronary stenosis”. In addition, in series [2], the infarct size entry is reported as “reduce” and the neurologic deficit entry is on record as “reduce”.
